Data set [1] in a line: logP determination by HPLC on a reversed-phase column (C18), EEC Directive 79/831 Annex V.A8. The conditions noted are these: for logP: HPLC, reversed-phase C18, acetonitrile/water with formic acid, 55° C.; for logP^a): HPLC-MS method a), Table I-T3. Type of data set: physicochemical.
The next data set deals with Rhipicephalus sanguineus. In words: Rhipicephalus sanguineus - in vitro contact tests with adult brown dog ticks. It is filed as in vivo. The procedure:
Rhipicephalus sanguineus—In Vitro Contact Tests with Adult Brown Dog Ticks
For the coating of the test tubes, 9 mg of active ingredient are first dissolved in 1 ml of acetone p.a. and then diluted to the desired concentration with acetone p.a. 250 μl of the solution are distributed homogeneously on the inner walls and base of a 25 ml test tube by turning and rocking on an orbital shaker (rocking rotation at 30 rpm for 2 h). With 900 ppm active ingredient solution and internal surface 44.7 cm^2, given homogeneous distribution, an area-based dose of 5 μg/cm^2 is achieved.
After the solvent has evaporated off, the tubes are populated with 5-10 adult dog ticks (Rhipicephalus sanguineus), sealed with a perforated plastic lid and incubated in a horizontal position in the dark at room temperature and ambient humidity. After 48 h, efficacy is determined. To this end, the ticks are knocked to the floor of the tube and incubated on a hotplate at 45-50° C. for not more than 5 min. Ticks which remain motionless on the floor or move in such an uncoordinated manner that they are unable to deliberately avoid the heat by climbing upwards are considered to be dead or moribund.
An efficacy of 100% means that all the ticks were dead or moribund. 0% efficacy means that none of the ticks had been harmed.

The test system of data set [2] is Ctenocephalides felis. In words: Ctenocephalides felis - in vitro contact tests with adult cat fleas. The following applies: application rate 5 μg/cm^2 (=500 g/ha), after 48 h (dead or moribund). Type of data set: in vivo. The protocol: Ctenocephalides felis—In Vitro Contact Tests with Adult Cat Fleas
For the coating of the test tubes, 9 mg of active ingredient are first dissolved in 1 ml of acetone p.a. and then diluted to the desired concentration with acetone p.a. 250 μl of the solution are distributed homogeneously on the inner walls and base of a 25 ml test tube by turning and rocking on an orbital shaker (rocking rotation at 30 rpm for 2 h). With 900 ppm active ingredient solution and internal surface area 44.7 cm^2, given homogeneous distribution, an area-based dose of 5 μg/cm^2 is achieved.
After the solvent has evaporated off, the tubes are populated with 5-10 adult cat fleas (Ctenocephalides felis), sealed with a perforated plastic lid and incubated in a horizontal position at room temperature and ambient humidity. After 48 h, efficacy is determined. To this end, the test tubes are stood upright and the fleas are knocked to the base of the tube. Fleas which remain motionless at the base or move in an uncoordinated manner are considered to be dead or moribund.
100% efficacy means that all the fleas were dead or moribund. 0% efficacy means that no fleas were harmed.

Another data set deals with Boophilus microplus. The experiment in a line: Boophilus microplus - injection test. It is filed as in vivo. The conditions noted are these: application rate 20 μg/animal; injected into engorged adult female ticks; laying of fertile eggs, after 7 days. An outline of the steps: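 Scoring was by fertile egg laying 7 days after injection, holding doubtful eggs until larvae hatched at about 42 days; 100% = no fertile eggs, 0% = all eggs fertile. Groups of 5 engorged adult female cattle ticks were each injected abdominally with 1 μl of compound in DMSO.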

Data set [3] deals with Boophilus microplus Parkhurst strain, SP-resistant. In words: Boophilus microplus - dip test. Type of data set: in vivo. The following applies: application rate 100 ppm; dip of engorged adult female ticks; laying of fertile eggs, after 7 days. The protocol: Boophilus microplus—Dip Test
Test animals: cattle ticks (Boophilus microplus) Parkhurst strain, SP-resistant
Solvent: dimethyl sulphoxide
10 mg of active ingredient are dissolved in 0.5 ml of dimethyl sulphoxide. For the purpose of producing a suitable formulation, the active ingredient solution is diluted with water to the concentration desired in each case.
This active ingredient formulation is pipetted into tubes. 8-10 adult engorged female cattle ticks (Boophilus microplus) are transferred into a further tube with holes. The tube is immersed into the active ingredient formulation, and all the ticks are completely wetted. After the liquid has run out, the ticks are transferred on filter discs into plastic dishes and stored in a climate-controlled room.
Efficacy is assessed after 7 days by laying of fertile eggs. Eggs which are not visibly fertile are stored in a climate-controlled cabinet until the larvae hatch after about 42 days. An efficacy of 100% means that none of the ticks has laid any fertile eggs; 0% means that all the eggs are fertile.

The subject of data set [4] is Ctenocephalides felis. The experiment in a line: Ctenocephalides felis - oral test. Type of data set: in vivo. The conditions noted are these: application rate 100 ppm in citrated cattle blood; adult fleas; kill after 2 days. The essentials:
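Compound dissolved in DMSO (10 mg in 0.5 ml stock) and diluted with citrated cattle blood to test concentration. About 20 unfed adult fleas fed on the treated blood through a parafilm membrane. Kill (%) scored after 2 days; 100% = all fleas dead.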

The subject of another data set is Lucilia cuprina. The experiment in a line: Lucilia cuprina test. It is filed as in vivo. The conditions noted are these: application rate 100 ppm; L1 larvae in minced horsemeat; kill after 2 days. An outline of the steps: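 About 20 L1 larvae placed on minced horsemeat treated with compound, formulated in DMSO and diluted with water to test concentration. Kill in % scored after 2 days (100% = all larvae dead, 0% = none).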

A further data set concerns Musca domestica. The experiment in a line: Musca domestica test. The following applies: application rate 100 ppm; adult houseflies; kill after 2 days. Type of data set: in vivo. An outline of the steps:
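Compound dissolved in DMSO (10 mg per 0.5 ml) and diluted with water to the test concentration. Sponges soaked with sugar solution plus formulation were offered to 10 adult houseflies per vessel. Mortality (% kill, 100% = all dead, 0% = none) scored after 2 days.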

[5] abbreviates: HPLC on reversed-phase column (C18).
[6] abbreviates: application rate 5 μg/cm^2, after 48 h (dead or moribund).
Where [7] appears, read: HPLC-MS, reversed-phase column (C18).

The log P is a log measure of how a compound divides between an organic and an aqueous phase. A higher log P goes with a more lipophilic compound. Turning to `O=C(NC1CC1)c1cc(-c2cnn(-c3c(Cl)cc(C(F)(C(F)(F)F)C(F)(F)F)cc3OC(F)F)c2)cnc1Cl` [I-T3-196], the “log P” value in data set [1] (setting [5]) is 3.9. For the same compound, the efficacy with Rhipicephalus sanguineus (setting [6]) and in the data set with Ctenocephalides felis [2] was 100% each time.

For the compound `Cc1cc(C(F)(C(F)(F)F)C(F)(F)F)cc(I)c1-n1cc(-c2ccc(Cl)c(C(=O)NC3(C#N)CC3)c2)cn1` [I-T3-176], in data set [1] (setting [7]), the “log P” value was 4.4. Moreover, the efficacy (in the data set on Rhipicephalus sanguineus (setting [6]); with Ctenocephalides felis [2]; with Boophilus microplus; in data set [3]; in the data set with Ctenocephalides felis [4]; with Lucilia cuprina) was 100% each time. For the same compound, the efficacy in the data set on Musca domestica was determined as 100%.

In general, logP refers to the decadic logarithm of the partition coefficient of the neutral form, usually between octanol and water. Take `Cc1cc(C(F)(C(F)(F)F)C(F)(F)F)cc(C)c1-c1cnn(-c2ccc(Cl)c(C(=O)NC3(C#N)CC3)c2)c1` [I-T4-2]: in data set [1], the logP came out at 4.6. For the same compound, the efficacy in the data set on Rhipicephalus sanguineus (setting [6]), in the data set on Ctenocephalides felis [2], in the data set with Boophilus microplus, in the data set with Ctenocephalides felis [4], in the data set on Lucilia cuprina and with Musca domestica was 100% in each case.

`O=C(NC1CC1)c1cc(-c2cnn(-c3c(Br)cc(C(F)(C(F)(F)F)C(F)(F)F)cc3C(F)(F)F)c2)cnc1Cl` [I-T3-160]: in data set [1] (setting [7]), the “log P” value is listed as 4.0. Further, the efficacy (in the data set on Rhipicephalus sanguineus (setting [6]); in the data set with Ctenocephalides felis [2]; in the data set on Boophilus microplus; in data set [3]; in the data set with Ctenocephalides felis [4]; with Lucilia cuprina) was 100% in each case. Moreover, the efficacy in the data set on Musca domestica is reported as 100%.

`O=C(NC1CC1)c1cc(-c2cnn(-c3c(Cl)cc(C(F)(C(F)(F)F)C(F)(F)F)cc3OC(F)(F)F)c2)cnc1Cl` [I-T3-189]: the “log P” value in data set [1] (setting [5]) came out at 4.3. The efficacy in the data set with Rhipicephalus sanguineus (setting [6]), with Ctenocephalides felis [2], in the data set with Ctenocephalides felis [4], in the data set with Lucilia cuprina and with Musca domestica was 100% each time.

Take `Cc1cc(C(F)(C(F)(F)F)C(F)(F)F)cc(C(F)(F)F)c1-c1cc(-c2cnc(Cl)c(C(=O)NC3(C#N)CC3)c2)on1` [I-T22-4]: the logP in data set [1] worked out at 4.4. Moreover, the efficacy (with Rhipicephalus sanguineus (setting [6]); with Boophilus microplus; in data set [3]; in the data set on Ctenocephalides felis [4]) was 100% throughout.

Regarding `Cc1cc(C(F)(C(F)(F)F)C(F)(F)F)cc(C(F)(F)F)c1-c1cc(-c2ccc(Cl)c(C(=O)NC3CC3)c2)on1` [I-T22-5], the logP in data set [1] came out at 4.9. The efficacy (in the data set on Rhipicephalus sanguineus (setting [6]); in the data set on Ctenocephalides felis [2]; in the data set on Boophilus microplus; in data set [3]; in the data set on Ctenocephalides felis [4]; in the data set with Lucilia cuprina) was 100% throughout. For the same compound, in the data set on Musca domestica, the efficacy came out at 100%.

Turning to `COc1ncc(-c2cnn(-c3c(C)cc(C(F)(C(F)(F)F)C(F)(F)F)cc3C)c2)cc1C(=O)NC1(C#N)CC1` [I-T3-141], the “log P” value in data set [1] (setting [7]) was found to be 4.4. In addition, the efficacy in the data set with Rhipicephalus sanguineus (application rate 1 μg/cm^2, after 48 h (dead or moribund)) turned out to be 100%; in the data set with Boophilus microplus, 100%; with Ctenocephalides felis [4], 100%; in the data set on Lucilia cuprina, 100%; in the data set with Musca domestica it was 100%.

For `O=C(NC1CC1)c1cc(-c2cnn(-c3ccc(C(F)(C(F)(F)F)C(F)(F)F)cc3C(F)(F)F)c2)ccc1Cl` [I-T3-52], in data set [1], the “logP^a)” value is given as 4.3. In addition, the efficacy in the data set with Rhipicephalus sanguineus (setting [6]), in the data set with Boophilus microplus, in the data set on Ctenocephalides felis [4], in the data set on Lucilia cuprina and in the data set with Musca domestica was 100% each time.

`Cc1cc(C(F)(C(F)(F)F)C(F)(F)F)cc(C(F)(F)F)c1-c1cc(-c2cnc(Cl)c(C(=O)NC3CC3)c2)on1` [I-T22-6]: in data set [1], the logP was 4.5. For the same compound, the efficacy in the data set with Rhipicephalus sanguineus (setting [6]) stood at 100%; in the data set on Boophilus microplus it was 100%; in data set [3], 100%; in the data set on Ctenocephalides felis [4], 95%; with Lucilia cuprina it was 100%; with Musca domestica it was 90%.

`O=C(NC1CC1)c1cc(-c2cnn(-c3ccc(OC(F)(F)F)cc3Cl)c2)ccc1Cl` [I-T3-90]: the “logP^a)” value in data set [1] was found to be 3.6. In addition, the efficacy worked out at 100% in the data set on Rhipicephalus sanguineus (setting [6]); 100% in the data set with Boophilus microplus; 100% with Ctenocephalides felis [4]; 100% in the data set with Lucilia cuprina; 90% with Musca domestica.

Take `Cc1cc(C(F)(C(F)(F)F)C(F)(F)F)cc(I)c1-n1cc(-c2ccc(Cl)c(C(=O)NC3CC3)c2)cn1` [I-T3-175]: the “log P” value in data set [1] (setting [7]) came to 4.5. Besides, the efficacy (with Rhipicephalus sanguineus (setting [6]); in the data set with Ctenocephalides felis [2]; in the data set on Boophilus microplus; in data set [3]; with Ctenocephalides felis [4]; in the data set on Lucilia cuprina) was 100% throughout. The compound further showed an efficacy in the data set on Musca domestica of 100%.

Turning to `CCc1cc(C(F)(C(F)(F)F)C(F)(F)F)cc(C)c1-n1cc(-c2ccc(Cl)c(C(=O)NC3(C#N)CC3)c2)cn1` [I-T3-46], the “logP^a)” value in data set [1] came out at 4.6. Moreover, the efficacy in the data set on Rhipicephalus sanguineus (setting [6]), in the data set with Ctenocephalides felis [2], with Boophilus microplus, with Ctenocephalides felis [4], with Lucilia cuprina and with Musca domestica was 100% throughout.

Regarding `N#CC1(NC(=O)c2cc(-c3cnn(-c4c(Br)cc(C(F)(C(F)(F)F)C(F)(F)F)cc4C(F)(F)F)c3)cnc2Cl)CC1` [I-T3-165], in data set [1] (setting [7]), the “log P” value is 3.9. Further, the efficacy (in the data set with Rhipicephalus sanguineus (setting [6]); in the data set with Ctenocephalides felis [2]; in the data set on Boophilus microplus; in data set [3]; in the data set with Ctenocephalides felis [4]; in the data set with Lucilia cuprina) was 100% throughout. Besides, the efficacy in the data set on Musca domestica came to 100%.

In the case of `COc1ncc(-c2cnn(-c3c(C)cc(C(F)(C(F)(F)F)C(F)(F)F)cc3C)c2)cc1C(=O)NC1CC1` [I-T3-143], the “log P” value in data set [1] (setting [7]) came out at 4.6. Also, the efficacy with Rhipicephalus sanguineus (setting [6]) amounted to 80%; in the data set on Ctenocephalides felis [2], 100%; in the data set with Boophilus microplus, 100%; with Ctenocephalides felis [4], 100%; in the data set with Lucilia cuprina it was 100%; in the data set on Musca domestica, 100%.

With `O=C(NC1CC1)c1cc(-c2cnn(-c3c(Cl)cc(OC(F)(F)F)cc3Cl)c2)ccc1Cl` [I-T3-88], the “logP^a)” value in data set [1] is listed as 3.6. Further, the efficacy in the data set on Rhipicephalus sanguineus (setting [6]) was 80%; with Ctenocephalides felis [2], 100%; in the data set with Boophilus microplus, 100%; in the data set with Ctenocephalides felis [4] it was 100%; with Lucilia cuprina it was 100%; with Musca domestica it was 80%.
